Laboratory results reported in ChEMBL document CHEMBL1154043, “Synthesis and structure-activity relationship of a novel series of heterocyclic sulfonamide gamma-secretase inhibitors” (Bioorg Med Chem, 2009).
The source made the active and inactive calls. No cut-off for these calls is given here.

How the values were obtained:
[1] = (§1) Inhibition of gamma-secretase-mediated cleavage of human APP expressed in CHO cells assessed as reduction in amyloid beta42 production after 24 hrs by double sandwich ELISA; assay type: cell-based
[2] = Inhibition of gamma-secretase-mediated cleavage of human APP expressed in CHO cells assessed as reduction in amyloid beta40 production after 24 hrs by double sandwich ELISA; assay type: cell-based
[3] = biological target: Gamma-secretase (Homo sapiens) (UniProt Q96BI3+Q9NZ42+Q8WW43+P49768+Q92542+P49810); assay: (§2) Displacement of [3H](S)-5-chloro-N-(3-ethyl-1-hydroxypentan-2-yl)thiophene-2-sulfonamide from gamma secretase in human SH-SY5Y cells after 1 hr; assay type: cell-based
[4] = Inhibition of gamma-secretase-mediated mouse notch cleavage expressed in CHOK1 cells assessed as secreted alkaline phosphatase level after 48 hrs by chemiluminescence assay; assay type: cell-based; conditions: CHO-K1, 48 h
[5] = test system: CHO; assay: as §1; assay type: cell-based
[6] = Selectivity ratio of EC50 for gamma-secretase-mediated mouse notch cleavage to EC50 for gamma-secretase-mediated amyloid beta40 production
[7] = biological target: Gamma-secretase; assay: as §2; assay type: cell-based
[8] = Inhibition of gamma-secretase assessed as increase in beta-C-terminal fragment level after 24 hrs by double sandwich ELISA
[9] = Inhibition of gamma-secretase assessed as effect on APP level after 24 hrs by double sandwich ELISA
[10] = Selectivity for gamma-secretase-mediated APP cleavage over gamma-secretase-mediated notch processing

SMILES	EC50 [1] [nM]	EC50 [2] [nM]	Activity [3]	EC50 [4] [nM]	Activity [5]	Selectivity ratio [6]	IC50 [7] [nM]	Activity [8]	Activity [9]	Selectivity ratio [10]
CCC(CC)[C@@H](CO)NS(=O)(=O)c1ccc(Cl)s1 [GSI-136]	29	29	Active	–	–	–	–	–	–	–
CCC(CC)[C@H](NS(=O)(=O)c1ccc(Cl)s1)c1ccnn1Cc1ccc(O)cc1	–	92	–	1800	Active	20	154	Active	Active	–
C[C@H](c1ccc(F)cc1CCCC(=O)O)N(c1cc(F)ccc1F)S(=O)(=O)c1ccc(Cl)cc1	–	–	–	–	–	–	–	–	–	15
